Reference: patent publication US8518884B2, “Methods for treating atrial or ventricular arrhythmias by administering a G-protein alpha inhibitor” (Northwestern University, priority 2008, dated 2013)
Ends that are not written are not given here.

Key:
[1] = target: T1, M2R|Gαi/o interactions (Canis lupus familiaris, UniProt A0A8I3N4M6); experiment: Gαx minigenes in the PLA: CCh-induced ERP shortening and AF 3 days after delivery; type: in vivo, dog
T1 construct: from tissue; host or cells: posterior left atrium of intact dogs (in vivo), 3 days after minigene injection and electroporation
T1 sequence (A0A8I3N4M6 1-466): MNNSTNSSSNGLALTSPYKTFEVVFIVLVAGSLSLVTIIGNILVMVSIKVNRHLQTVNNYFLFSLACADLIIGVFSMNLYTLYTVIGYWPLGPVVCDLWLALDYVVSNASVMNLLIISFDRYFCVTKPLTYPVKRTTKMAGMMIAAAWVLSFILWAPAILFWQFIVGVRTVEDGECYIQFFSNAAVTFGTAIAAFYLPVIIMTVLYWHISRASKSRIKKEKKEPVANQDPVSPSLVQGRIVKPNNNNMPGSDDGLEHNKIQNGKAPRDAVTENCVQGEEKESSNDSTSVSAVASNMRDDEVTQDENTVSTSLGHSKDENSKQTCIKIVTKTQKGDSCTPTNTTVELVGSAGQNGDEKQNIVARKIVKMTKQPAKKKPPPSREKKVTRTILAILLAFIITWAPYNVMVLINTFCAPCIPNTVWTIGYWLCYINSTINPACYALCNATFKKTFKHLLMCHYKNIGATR
Experimental: (§1) In a small number of pilot experiments (N=6), 1 mg of Gαi2ctp or GαRp minigene was injected subepicardially in the PLA (also see Results). In the remaining experiments, 15-20 mg of ct-Gαi2ctp (N=5), or 7-10 mg of Gαi2ctp+7-10 mg of Gαo1ctp (N=3), or GαRp (N=5) minigenes was injected in the PLA. Minigenes were made up to a volume of 4 ml and injected at multiple sites (6-8 equally spaced sites, 0.5-1 cm apart; a volume of approximately 0.5 ml was injected at each site) in the PLA so as to cover the entire area between the PVs. […] Immediately after gene injection, electroporation was performed at each site of injection as follows: two gold-plated, needle-style electrodes (10 mm length each) were placed at each gene injection site on the PLA, with an inter-electrode distance of 5 mm; electroporation with performed as previously described in the lung by Dean et al^14, with 8 pulses of is at […] (ECM 830, Harvard Bioscience, Holliston, Mass.). After minigene delivery, the chest was closed and the animal allowed to recover. Vagal stimulation and electrophysiological testing were not performed at baseline, in order to minimize damage to the vagus nerve.
CCh application: ERP shortening was assessed by direct application of CCh, a non-selective MR agonist, to the PLA. […] After each dose, ERP testing was performed in the PLA.
(§2) Atrial Fibrillation Inducibility: AF was defined as an atrial arrhythmia that was irregular in at least one of the recording electrodes. Regular atrial arrhythmias—e.g., atrial flutter and atrial tachycardia—were excluded from AF analysis. AF inducibility was measured as the inducibility index and duration of AF episodes after a single extrastimulus^8,15. As previously described, the inducibility index was defined as the number of AF episodes lasting more than 5 seconds induced by a single atrial extrastimulus divided by the total number of single atrial extrastimuli delivered to measure each ERP (at least 3 for each site)^8. The inducibility index was compared for each maneuver. Mean AF duration for each intervention was also assessed. All data was acquired by a 128-channel mapping system (Prucka Cardiolab, GE, WI) at a sampling rate of 977 Hz. All AF episodes induced during extrastimulus testing were stored for offline analysis. After all ERPs had been obtained, minigene injection was performed as described below.
(§3) Effective Refractory Periods. For each ERP, the pacing protocol was composed of a drive train (S1) of eight beats with a cycle length of 400 ms followed by an extrastimulus (S2). The S2 was decremented by 10 ms until loss of capture. […] Pacing was performed at an output current twice the threshold required for consistent capture of the tissue. The mean ERP was used as the representative ERP for each of the three sites as well as the entire left atrium.

[2] = target: T1, M2R|Gαi/o interactions; experiment: Gαx minigenes in the PLA: vagal-induced ERP shortening, AF inducibility, AF duration and dominant frequency 3 days after delivery; type: in vivo, dog
Experimental: as §1
Baseline study: Three days after the initial study, the chest was re-opened. […] The PV plaque was placed circumferentially around the vein while the other two plaques were laid flat on the PLA and LAA epicardium. Effective refractory periods (ERPs) were obtained from 5, 6, and 4 sites on the PV, PLA, and LAA plaque, respectively, at baseline.
Vagal stimulation: For vagal stimulation, the left cervical vagus nerve was isolated, a bipolar stainless steel electrode was attached to the nerve, and stimulation was performed at 20 Hz (15-20V, 2-8 ms) (Grass S44G, Astromed Inc, R1). A vagal response was defined as: 1) sinus node slowing by at least 25% or 2) PR prolongation by more than 25% or 2:1 AV block^13. ERP testing was performed in the presence and absence of VS.
as §2
Offline Electrogram Analysis. Electrograms recorded during the maximum duration AF episodes obtained during extrastimulus testing were analyzed with dominant frequency (DF) analysis. DF is an estimation of activation rate calculated as the frequency with the most power in the power spectrum. The power spectrum is obtained from the Fast Fourier Transform of an electrogram after rectification and low pass filtering (20 Hz). These analyses were performed offline using Matlab (Mathworks, Natick, Mass.).
as §3

[3] = tested on: Gαi; experiment: cp-Gα peptide delivery to the PLA with electroporation/sonoporation: ERPs and AF inducibility with vagal stimulation; type: in vivo, canine
Experimental: High-density epicardial mapping was performed in the PVs (2×2 electrodes), the PLA (7×3 electrodes) and the left atrial appendage (LAA) (7×3 electrodes) of canine subjects. Effective refractory periods (ERPs) were obtained at baseline and in response left cervical vagal stimulation (VS) (20 Hz). Cp-Gαi2 peptide (200-330 nM) was then applied topically to the epicardial aspect of the PLA in a canine subgroup. Cp-Gαi3 peptide (200-330 nM) was then applied topically to the epicardial aspect of the PLA of a second subgroup. Electroporation was performed after the application of peptide to enhance intracellular delivery of the peptide. ERPs were then re-measured in the presence and absence of VS.
In canine subjects, high-density epicardial mapping was performed in the PVs (2×2 electrodes), the PLA (7×3 electrodes) and the left atrial appendage (LAA) (7×3 electrodes). Effective refractory periods (ERPs) were obtained at baseline and in response left cervical vagal stimulation (VS) (20 Hz). FLAG-tcp-Gα peptides (200 nM-3 μM of cp-Gαi1/2 (N=8 canine subjects), cp-Gαi3 (N=4 canine subjects), or random-sequence cp-GαoR peptide (N=3 canine subjects) were injected into the PLA epicardium of the canine subjects followed by either sonoporation or electroporation. In a subgroup of the canine subjects, sonoporation or electroporation alone was performed without introduction of cp-Gαi peptide. ERPs were then re-measured in the presence and absence of VS. In a separate set of control animals, ERPs were measured before and after the administration of systemic autonomic blockade with propranolol (0.2 mg/kg)+atropine (0.04 mg/kg).

[4] = tested on: left atrium; experiment: Functional studies in pacing-induced CHF and control canine subjects: left atrial ERPs under autonomic manipulation; type: in vivo
Experimental: Canine subjects were divided into three groups. In group 1, CHF was induced by rapid ventricular pacing for 4 weeks (i.e. when the animals began to develop clinical heart failure. In group 2, pacing was performed for only 3 weeks. Group three were control canine subjects not subjected to rapid ventricular pacing. At the end of follow up period, high-density epicardial mapping was performed in the PVs, the PLA and the LAA. ERPs were obtained at multiple sites under the following conditions: a) baseline (BSL), b) left cervical vagal stimulation at 20 Hz (VS), c) beta-stimulation with isoproterenol (ISO), d) beta-blockade with propranolol (PROP) and e) beta-blockade+vagal stimulation (P+VS). VS caused significant mean ERP shortening in all three groups. […] PROP increased the VS effect on ERP in normal controls, but produced an attenuation of this effect in the CHF group (SEE FIG. 37). In this CHF model, after 4 weeks of pacing, an increased vagal effect on atrial refractoriness, an increased cumulative sympathetic effect, and a change in the sympatho-vagal interactions of the left atrium were observed. After 3 weeks of pacing, there is pronounced autonomic remodeling, with evidence of P as well S nerve upregulation in the PVs and left atrium. Both P and S upregulation are more pronounced in the PLA (and to a lesser extent in the PVs) than in the rest of the left atrium. While vagal responsiveness in the left atrium is unaltered at 3 weeks of pacing, it increases after 4 weeks of pacing. […] The autonomic remodeling becomes more pronounced with increasing duration of pacing. […] The increase in β1 binding is consistent with the increase in sympathetic innervation. […] The P upregulation noted in the left atrium in CHF is a compensatory response to S upregulation that occurs in response to CHF. […] However, since normal atria are more densely innervated with vagal fibers (than the ventricle) and also contain a significant amount of IKAch, the compensatory response is likely to be more vigorous in the atrium. The compensatory increase in vagal innervations, and resulting increase in IKAch, may contribute to increased AF substrate.

[5] = 200 nM-3 μM injected into PLA + sono/electroporation

IKNNLKDCGLF [Gαi2ctp]
CCh-induced ERP shortening in the PLA ([1]; 3 μM, 10 μM CCh, compared to GαRp dogs): significantly less | CCh-induced ERP shortening in the PLA ([1]; 30 μM CCh, compared to GαRp dogs): no significant difference | CCh-induced ERP shortening in the PLA ([1]; CCh 3, 10 and 30 μM, compared to baseline ERP): only at 30 μM CCh | AF duration in response to CCh ([1]; vs. GαRp dogs): significantly less | AF inducibility in response to CCh ([1]; vs. GαRp dogs): significantly less | vagal-induced ERP shortening in the PLA ([2]; 3 days after minigene delivery, mean±SE): 19.5 ± 5.0 ms | vagal-induced ERP shortening in the PLA ([2]; compared to GαRcpt, FIG. 29A): attenuated | vagal-induced ERP shortening in the PV and LAA ([2]; compared to GαRp dogs): no significant difference | AF inducibility in response to VS ([2]; inducibility index, vs. GαRp dogs): significantly less | VS-induced increase in AF dominant frequency (DF) ([2]; vs. GαRp dogs): significantly less | mean AF duration in response to VS ([2]; vs. GαRp dogs): significantly less

cp-Gαi3: cell-penetrating poly-arginine tagged Gαi3 C-terminal peptide (IKNNLKECGLY; also: cell-penetrating poly-arginine tag, length and site not given here)
VS-induced ERP shortening in the LAA [3, 5]: reduced | VS-induced ERP shortening in the PLA [3, 5]: eliminated | VS induced ERP shortening ([3]; 200-330 nM topical to PLA + electroporation, PLA, PV and LAA): significantly attenuated

CC(C)NCC(O)COc1cccc2ccccc12 (stereo not drawn) [PROP, propranolol]
effect on ERPs ([4]; CHF canine subjects): ERP lengthening | effect on the VS effect on ERP ([4]; CHF group): attenuation | effect on ERPs ([4]; control canine subjects): significant shortening of ERPs | effect on the VS effect on ERP ([4]; normal controls): increased
